Experimental findings from ChEMBL document CHEMBL1201862, “PubChem BioAssay data set” (2004) are described below.

Molecules are shown by their SMILES.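 A five-concentration, 48-hour dose response in 96-well plates underlies each endpoint, interpolated linearly between surrounding concentrations. At the GI50, growth is halved.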 Active and inactive are the calls of the source. Cut-off read from the data, not from the text of the source: active = GI50 up to about 1.1 µM and inactive = higher.

Test systems include BT-549; CAKI-1; COLO 205; HOP-62; HOP-92; HT-29; MDA-MB-231; Malme-3M; NCI-H23; NCI-H522; OVCAR-4; SF-295; SK-MEL-28; SNB-19; SNB-75; TK-10; UACC-257; UACC-62; RPMI-8226; MDA-N.
Test in all cases: NCI anticancer screen, dose series, 48 h

With `O=C1Cc2cc3ccccc3nc2-c2ccccc2N1`, the GI50 with BT-549 is 92.9 µM (inactive); in the test on CAKI-1, 32.7 µM (inactive); with COLO 205, > 100 µM (inactive); in the test with HOP-62, 56 µM (inactive); in the test with HOP-92, 41.7 µM (inactive); with HT-29 it was 55.1 µM (inactive). Also, the GI50 with MDA-MB-231 was 20.5 µM (inactive); with Malme-3M it was > 100 µM (inactive); with NCI-H23, > 100 µM (inactive); in the test on NCI-H522 it was 26.7 µM (inactive); with OVCAR-4 it was 45.6 µM (inactive); in the test with SF-295, 85.5 µM (inactive). Besides, the GI50 was > 100 µM (inactive) in the test with SK-MEL-28; 49.2 µM (inactive) in the test on SNB-19; 24.7 µM (inactive) in the test on SNB-75; 27.7 µM (inactive) in the test on TK-10; 99.1 µM (inactive) with UACC-257; > 100 µM (inactive) with UACC-62.

For the molecule `Cc1c(O)c(OC2OC(CO)C(O)C(O)C2O)cc2c1CC[C@@H]1C2(C)C(=O)C[C@]2(C)[C@@H]([C@@](C)(O)C3CCC(C)(C)O3)[C@H](O)C[C@@]12C` (stereo not given in full), the GI50 in the test with BT-549, in the test with CAKI-1, with COLO 205, with HOP-62, in the test on HOP-92 and in the test on HT-29 was > 100 µM (inactive) throughout. For the same molecule, the GI50 in the test on MDA-MB-231, in the test with Malme-3M, in the test on NCI-H23, with NCI-H522, with OVCAR-4 and with SF-295 was > 100 µM (inactive) throughout. Also, the GI50 in the test with SK-MEL-28, in the test on SNB-19, in the test on SNB-75, with TK-10, with UACC-257 and with UACC-62 was > 100 µM (inactive) each time.

On to `CCc1cc(CCC(=O)Nc2c(C)cccc2C)n[nH]1`, for which the GI50 with CAKI-1, with COLO 205, in the test with HOP-62, in the test with HOP-92, in the test on HT-29 and in the test on Malme-3M was > 100 µM (inactive) throughout. Besides, the GI50 with NCI-H23, in the test on NCI-H522, in the test with OVCAR-4, in the test with RPMI-8226, in the test on SF-295 and with SK-MEL-28 was > 100 µM (inactive) throughout. Moreover, the GI50 in the test with SNB-19, in the test with SNB-75, in the test on TK-10, in the test on UACC-257 and in the test with UACC-62 was > 100 µM (inactive) in each case.

As to `Cc1ccc(-c2cc(-c3c(C)nn(C)c(=O)c3N)n[nH]2)cc1`, the GI50 in the test on CAKI-1, with COLO 205, in the test with HOP-92, in the test with HT-29, in the test with MDA-MB-231 and in the test with MDA-N was > 100 µM (inactive) each time. Moreover, the GI50 with Malme-3M is > 100 µM (inactive); in the test with NCI-H23 it was > 100 µM (inactive); in the test on OVCAR-4, > 100 µM (inactive); with RPMI-8226, 99.1 µM (inactive); in the test with SF-295, > 100 µM (inactive); with SK-MEL-28 it was > 100 µM (inactive). Moreover, the GI50 in the test with SNB-19, in the test on TK-10, with UACC-257 and in the test on UACC-62 was > 100 µM (inactive) in each case.

Turning to `CNCCCn1c2ccccc2c2c3c(c(-c4ccsc4)cc21)C(=O)NC3=O`, the GI50 was 2.1 µM (inactive) with BT-549; 0.519 µM (active) in the test with CAKI-1; 1.39 µM (inactive) in the test with COLO 205; 1.02 µM (active) in the test with HOP-62; 0.824 µM (active) in the test with HT-29; 1.57 µM (inactive) with MDA-MB-231. Further, the GI50 is 0.163 µM (active) in the test with Malme-3M; 0.0822 µM (active) in the test with NCI-H23; 1.66 µM (inactive) with NCI-H522; 1.59 µM (inactive) with OVCAR-4; 0.0953 µM (active) with SF-295; 1.78 µM (inactive) with SK-MEL-28. In addition, the GI50 is 1.6 µM (inactive) with SNB-19; 1.91 µM (inactive) in the test on SNB-75; 1.35 µM (inactive) in the test with TK-10; 1.58 µM (inactive) in the test with UACC-257; 1.49 µM (inactive) with UACC-62.

On to `c1ccc2c(c1)SCCC2NC1=NCCO1` (stereo not given), for which the GI50 was > 100 µM (inactive) with CAKI-1; > 100 µM (inactive) with COLO 205; > 100 µM (inactive) in the test with HOP-62; 89.5 µM (inactive) with HT-29; > 100 µM (inactive) in the test with MDA-MB-231; > 100 µM (inactive) in the test with MDA-N. For the same molecule, the GI50 in the test on Malme-3M, in the test with NCI-H23, in the test on NCI-H522, in the test on OVCAR-4, in the test on RPMI-8226 and in the test on SF-295 was > 100 µM (inactive) throughout. The GI50 in the test with SK-MEL-28, in the test with SNB-19, in the test with SNB-75, with TK-10 and with UACC-62 was > 100 µM (inactive) in each case.

In the case of `CC(=O)OCc1cc2c(s1)C(=O)c1sccc1C2=O`, the GI50 was 1.84 µM (inactive) in the test on CAKI-1; 1.65 µM (inactive) with COLO 205; 0.528 µM (active) with HOP-92; 0.65 µM (active) in the test with HT-29; 0.237 µM (active) in the test with MDA-MB-231; 0.272 µM (active) in the test on Malme-3M. The GI50 in the test with NCI-H23 was 0.018 µM (active); in the test with NCI-H522, 0.147 µM (active); in the test with OVCAR-4, 0.191 µM (active); in the test with RPMI-8226 it was 0.239 µM (active); in the test with SF-295 it was 0.0541 µM (active); in the test with SK-MEL-28, < 0.0386 µM (active). In addition, the GI50 with SNB-19 is 0.177 µM (active); in the test on SNB-75, 0.057 µM (active); in the test with TK-10, 1.79 µM (inactive); in the test with UACC-257, 0.0986 µM (active); with UACC-62 it was 0.166 µM (active).

Regarding `c1ccc2c(c1)OCCOCCOc1ccccc1OCCO2`, the GI50 was 78 µM (inactive) in the test with CAKI-1; 50.5 µM (inactive) in the test on COLO 205; 67.1 µM (inactive) with HOP-62; 51.5 µM (inactive) in the test with HOP-92; 33.3 µM (inactive) in the test with HT-29; 33.1 µM (inactive) with Malme-3M. For the same molecule, the GI50 in the test with NCI-H23 is > 100 µM (inactive); in the test on NCI-H522 it was 32.7 µM (inactive); in the test with OVCAR-4 it was 39.3 µM (inactive); with RPMI-8226, 22.3 µM (inactive); in the test with SF-295, 62.4 µM (inactive); in the test on SK-MEL-28, > 100 µM (inactive). Moreover, the GI50 was 64.6 µM (inactive) with SNB-19; 47.1 µM (inactive) in the test on SNB-75; 45.6 µM (inactive) in the test with TK-10; 84.7 µM (inactive) with UACC-257; 51.2 µM (inactive) in the test with UACC-62.

As for `Cc1oc2nc(N(C)C)nc(NN)c2c1C`, the GI50 with BT-549, in the test on CAKI-1, in the test on COLO 205, in the test on HOP-62, with HOP-92 and in the test with HT-29 was > 100 µM (inactive) each time. Besides, the GI50 in the test on MDA-MB-231, with NCI-H23, with NCI-H522, with OVCAR-4, in the test on RPMI-8226 and in the test with SF-295 was > 100 µM (inactive) each time. Besides, the GI50 in the test with SK-MEL-28, with SNB-19, in the test on SNB-75, in the test on TK-10, in the test with UACC-257 and with UACC-62 was > 100 µM (inactive) throughout.

In the case of `Cc1cc([C@H](C#N)c2nc3ccccc3[nH]2)nc(Cl)n1`, the GI50 in the test on BT-549 was 53.6 µM (inactive); in the test on CAKI-1, 98.4 µM (inactive); in the test with COLO 205, 42.1 µM (inactive); with HOP-92, 20.1 µM (inactive); in the test on HT-29, 41.7 µM (inactive); in the test with MDA-MB-231 it was 59.3 µM (inactive). The GI50 in the test with Malme-3M is 77.3 µM (inactive); in the test with NCI-H23, 30.1 µM (inactive); in the test on OVCAR-4 it was 40.4 µM (inactive); in the test with RPMI-8226, 5.65 µM (inactive); in the test on SF-295, > 100 µM (inactive); in the test on SK-MEL-28 it was 39.1 µM (inactive). Moreover, the GI50 is 71.6 µM (inactive) in the test on SNB-19; 31 µM (inactive) in the test on SNB-75; 61.1 µM (inactive) with TK-10; 26.5 µM (inactive) in the test with UACC-257; 22.3 µM (inactive) in the test with UACC-62.

Turning to `O=C1NC2c3c(I)sc(I)c3/C(=N\O)C2O1` (stereo not given), the GI50 in the test with CAKI-1 was 32.7 µM (inactive); in the test with COLO 205, 20.8 µM (inactive); with HOP-62, 30.5 µM (inactive); in the test on HOP-92 it was 19.2 µM (inactive); in the test on HT-29 it was 17.9 µM (inactive); in the test on MDA-MB-231, 24 µM (inactive). In addition, the GI50 in the test with MDA-N was 33.6 µM (inactive); with Malme-3M it was 25.1 µM (inactive); in the test on NCI-H23, 23.2 µM (inactive); with OVCAR-4, 26.1 µM (inactive); with RPMI-8226 it was 67.9 µM (inactive); in the test with SF-295, 45.6 µM (inactive). Further, the GI50 in the test on SK-MEL-28 is 41.8 µM (inactive); in the test with SNB-19, 21.7 µM (inactive); with SNB-75, 59.6 µM (inactive); in the test with TK-10, 48.5 µM (inactive); in the test with UACC-257 it was 58.3 µM (inactive); with UACC-62, 20.7 µM (inactive).
